The values below come from patent publication US20240190880A1 (THE REGENTS OF THE UNIVERSITY OF MICHIGAN, priority 2021, published 2024).

The target of the first experiment is T1, ER (Homo sapiens, UniProt P03372).
T1 construct: host or cells: T47D and MCF7 human breast cancer cells
T1 sequence (P03372 1-595): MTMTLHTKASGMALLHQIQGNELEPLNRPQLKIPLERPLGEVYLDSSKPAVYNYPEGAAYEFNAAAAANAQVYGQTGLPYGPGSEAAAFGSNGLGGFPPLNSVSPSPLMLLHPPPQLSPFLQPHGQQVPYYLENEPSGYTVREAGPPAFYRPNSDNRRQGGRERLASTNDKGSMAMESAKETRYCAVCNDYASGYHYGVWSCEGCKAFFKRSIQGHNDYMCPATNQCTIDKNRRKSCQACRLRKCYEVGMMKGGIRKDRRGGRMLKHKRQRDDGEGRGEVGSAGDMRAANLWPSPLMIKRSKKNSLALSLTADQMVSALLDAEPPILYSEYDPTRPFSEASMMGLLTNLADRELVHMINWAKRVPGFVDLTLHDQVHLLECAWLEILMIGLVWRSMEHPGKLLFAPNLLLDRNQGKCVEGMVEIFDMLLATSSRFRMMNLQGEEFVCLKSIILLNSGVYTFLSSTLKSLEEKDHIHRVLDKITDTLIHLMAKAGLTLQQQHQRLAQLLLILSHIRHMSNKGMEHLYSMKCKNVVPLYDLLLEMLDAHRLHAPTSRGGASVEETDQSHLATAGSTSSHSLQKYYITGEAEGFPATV
As to the kind of experiment: ER degradation activity, in-cell western blot analysis in T47D cells. The following applies: 16 hours, Table A does not say which cell line (T47D or MCF7), read-out: Potency (DC50). Format: cell-based. The method in brief:
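ER protein remaining after 16 h compound exposure is quantified in T47D cells by in-cell western, with a no-primary-antibody background control. Values are percentages of DMSO-treated signal.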
In general, DC50 refers to the concentration at which degradation of the target reaches its halfway point. On to `C[C@@H]1Cc2c([nH]c3ccccc23)[C@@H](c2c(F)cc(N3CCCC(CN4CCC(C(=O)N5Cc6cc7c(cc6C5)C(=O)N(C5CCC(=O)NC5=O)C7)CC4)C3)cc2F)N1CC(F)F` (stereo partly drawn) [E 92, 3-(6-(1-((1-(4-((1R,3R)-2-(2,2-difluoroethyl)-3-methyl-2,3,4,9-tetrahydro-1H-pyrido[3,4-b]indol-1-yl)-3,5-difluorophenyl)piperidin-3-yl)methyl)piperidine-4-carbonyl)-1-oxo-3,5,6,7-tetrahydropyrrolo[3,4-f]isoindol-2(1H)-yl)piperidine-2,6-dione], for which the DC50 was less than 10 nM.

In the case of `CN(C1CCN(c2ccc([C@@H]3c4ccc(O)cc4CC[C@@H]3c3ccccc3)cc2)CC1)N1CCC(C(=O)N2Cc3cc4c(cc3C2)C(=O)N(C2CCC(=O)NC2=O)C4)CC1` (mixture of isomers) [E 288, 3-(6-(1-((1-(4-((1R,2S)-6-hydroxy-2-phenyl-1,2,3,4-tetrahydronaphthalen-1-yl)phenyl)piperidin-4-yl)(methyl)amino)piperidine-4-carbonyl)-1-oxo-3,5,6,7-tetrahydropyrrolo[3,4-f]isoindol-2(1H)-yl)piperidine-2,6-dione], the DC50 fell in the range of 10 to 100 nM.

As to `O=C1CCC(N2C(=O)c3cc4c(cc3C2=O)CCN(CC(=O)N2CC3(CCN(c5ccc([C@@H]6c7ccc(O)cc7CC[C@@H]6c6ccccc6)cc5)CC3)C2)CC4)C(=O)N1` (stereo partly drawn) [E 169, 2-(2,6-dioxopiperidin-3-yl)-7-(2-(7-(4-((1R,2S)-6-hydroxy-2-phenyl-1,2,3,4-tetrahydronaphthalen-1-yl)phenyl)-2,7-diazaspiro[3.5]nonan-2-yl)-2-oxoethyl)-6,7,8,9-tetrahydroazepino[4,5-f]isoindole-1,3(2H,5H)-dione], the DC50 is more than 100 nM.

For `C[C@@H]1Cc2c([nH]c3ccccc23)[C@@H](c2c(F)cc(N3CCC4(CCN(C(=O)CN5Cc6cc7c(cc6C5)C(=O)N(C5CCC(=O)NC5=O)C7=O)C4)C3)cc2F)N1CC(F)F` (stereo partly drawn) [E 79, 6-(2-(7-(4-((1R,3R)-2-(2,2-difluoroethyl)-3-methyl-2,3,4,9-tetrahydro-1H-pyrido[3,4-b]indol-1-yl)-3,5-difluorophenyl)-2,7-diazaspiro[4.4]nonan-2-yl)-2-oxoethyl)-2-(2,6-dioxopiperidin-3-yl)-6,7-dihydropyrrolo[3,4-f]isoindole-1,3(2H,5H)-dione], the DC50 fell in the range of 10 to 100 nM.

As for `O=C1CCC(N2C(=O)c3cc4c(cc3C2=O)CN(C(=O)CN2CC3(C2)CN(c2ccc(C5=C(c6ccc(F)cc6)CCCc6cc(O)ccc65)cc2)C3)C4)C(=O)N1` (stereo not shown) [E 49, 2-(2,6-dioxopiperidin-3-yl)-6-(2-(6-(4-(8-(4-fluorophenyl)-3-hydroxy-6,7-dihydro-5H-benzo[7]annulen-9-yl)phenyl)-2,6-diazaspiro[3.3]heptan-2-yl)acetyl)-6,7-dihydropyrrolo[3,4-f]isoindole-1,3(2H,5H)-dione], the DC50 fell in the range of 10 to 100 nM.

With `C[C@@H]1Cc2cc(O)ccc2C(c2ccc(N3CCC(C(=O)N4CCC(N5Cc6cc7c(cc6C5)C(=O)N(C5CCC(=O)NC5=O)C7=O)CC4)CC3)cc2)N1CC(F)F` (stereo partly drawn) [E 321, 6-(1-(1-(4-((3R)-2-(2,2-difluoroethyl)-6-hydroxy-3-methyl-1,2,3,4-tetrahydroisoquinolin-1-yl)phenyl)piperidine-4-carbonyl)piperidin-4-yl)-2-(2,6-dioxopiperidin-3-yl)-6,7-dihydropyrrolo[3,4-f]isoindole-1,3(2H,5H)-dione], the DC50 was less than 10 nM.

For the molecule `C[C@@H]1Cc2c([nH]c3ccccc23)[C@@H](c2c(F)cc(N3CCC(CN4CCC(N5Cc6cc7c(cc6C5)C(=O)N(C5CCC(=O)NC5=O)C7)CC4)CC3)cc2F)N1CC(F)F` (stereo partly drawn) [E 53, 3-(6-(1-((1-(4-((1R,3R)-2-(2,2-difluoroethyl)-3-methyl-2,3,4,9-tetrahydro-1H-pyrido[3,4-b]indol-1-yl)-3,5-difluorophenyl)piperidin-4-yl)methyl)piperidin-4-yl)-1-oxo-3,5,6,7-tetrahydropyrrolo[3,4-f]isoindol-2(1H)-yl)piperidine-2,6-dione], the DC50 lay in the range of 10 to 100 nM.

`C[C@@H]1Cc2cc(O)ccc2[C@@H](c2c(F)cc(N3CC4(CCN(CC(=O)N5Cc6cc7c(cc6C5)C(=O)N(C5CCC(=O)NC5=O)C7=O)CC4)C3)cc2F)N1CC(C)(F)F` (stereo partly drawn) [E 25, 6-(2-(2-(4-((1S,3R)-2-(2,2-difluoropropyl)-6-hydroxy-3-methyl-1,2,3,4-tetrahydroisoquinolin-1-yl)-3,5-difluorophenyl)-2,7-diazaspiro[3.5]nonan-7-yl)acetyl)-2-(2,6-dioxopiperidin-3-yl)-6,7-dihydropyrrolo[3,4-f]isoindole-1,3(2H,5H)-dione]: the 50% degradation concentration (DC50) is more than 100 nM.

With `CN(C1CCN(c2ccc([C@@H]3c4ccc(O)cc4CC[C@@H]3c3ccccc3)cc2)CC1)N1CCC(C(=O)N2Cc3cc4c(cc3C2)C(=O)N(C2CCC(=O)NC2=O)C4=O)CC1` (mixture of isomers) [E 287, 2-(2,6-dioxopiperidin-3-yl)-6-(1-((1-(4-((1R,2S)-6-hydroxy-2-phenyl-1,2,3,4-tetrahydronaphthalen-1-yl)phenyl)piperidin-4-yl)(methyl)amino)piperidine-4-carbonyl)-6,7-dihydropyrrolo[3,4-f]isoindole-1,3(2H,5H)-dione], the DC50 was in the range of 10 to 100 nM.

As to `O=C1CCC(N2C(=O)c3cc4c(cc3C2=O)CN(CC2CN(CC3CCN(c5ccc([C@@H]6c7ccc(O)cc7CC[C@@H]6c6ccccc6)cc5)CC3)C2)C4)C(=O)N1` (stereo partly drawn) [E 218, 2-(2,6-dioxopiperidin-3-yl)-6-((1-((1-(4-((1R,2S)-6-hydroxy-2-phenyl-1,2,3,4-tetrahydronaphthalen-1-yl)phenyl)piperidin-4-yl)methyl)azetidin-3-yl)methyl)-6,7-dihydropyrrolo[3,4-f]isoindole-1,3(2H,5H)-dione], the DC50 was more than 100 nM.

On to `C[C@@H]1Cc2c([nH]c3ccccc23)[C@@H](c2c(F)cc(N3CCC4(CCN(CC(=O)N5Cc6cc7c(cc6C5)C(=O)N(C5CCC(=O)NC5=O)C7)C4)C3)cc2F)N1CC(F)F` (stereo partly drawn) [E 75, 3-(6-(2-(7-(4-((1R,3R)-2-(2,2-difluoroethyl)-3-methyl-2,3,4,9-tetrahydro-1H-pyrido[3,4-b]indol-1-yl)-3,5-difluorophenyl)-2,7-diazaspiro[4.4]nonan-2-yl)acetyl)-1-oxo-3,5,6,7-tetrahydropyrrolo[3,4-f]isoindol-2(1H)-yl)piperidine-2,6-dione], for which the DC50 lay within 10 to 100 nM.

In the case of `O=C1CCC(N2C(=O)c3cc4c(cc3C2=O)CN([C@H]2CC[C@H](NC3CCN(c5ccc([C@@H]6c7ccc(O)cc7CC[C@@H]6c6ccccc6)cc5)CC3)CC2)C4)C(=O)N1` (stereo partly drawn) [E 335, 2-(2,6-dioxopiperidin-3-yl)-6-((1R,4r)-4-((1-(4-((1R,2S)-6-hydroxy-2-phenyl-1,2,3,4-tetrahydronaphthalen-1-yl)phenyl)piperidin-4-yl)amino)cyclohexyl)-6,7-dihydropyrrolo[3,4-f]isoindole-1,3(2H,5H)-dione], the DC50 was more than 100 nM.

In the case of `C[C@@H]1Cc2c([nH]c3ccccc23)[C@@H](c2c(F)cc(N3CCC4(CCN(CC(=O)N5Cc6cc7c(cc6C5)C(=O)N(C5CCC(=O)NC5=O)C7)C4)CC3)cc2F)N1CC(F)F` (stereo partly drawn) [E 63, 3-(6-(2-(8-(4-((1R,3R)-2-(2,2-difluoroethyl)-3-methyl-2,3,4,9-tetrahydro-1H-pyrido[3,4-b]indol-1-yl)-3,5-difluorophenyl)-2,8-diazaspiro[4.5]decan-2-yl)acetyl)-1-oxo-3,5,6,7-tetrahydropyrrolo[3,4-f]isoindol-2(1H)-yl)piperidine-2,6-dione], the DC50 is less than 10 nM.

The same experiment, now with this note: compounds 16 hours, Table A does not say whether T47D or MCF7, read-out: Potency (DC50).
Consider `C[C@@H]1Cc2cc(O)ccc2C(c2ccc(C3CCC4(CC3)CCN(C(=O)CN3Cc5cc6c(cc5C3)C(=O)N(C3CCC(=O)NC3=O)C6=O)CC4)cc2)N1CC(F)F` (stereo partly drawn) [E 450, 6-(2-(9-(4-((3R)-2-(2,2-difluoroethyl)-6-hydroxy-3-methyl-1,2,3,4-tetrahydroisoquinolin-1-yl)phenyl)-3-azaspiro[5.5]undecan-3-yl)-2-oxoethyl)-2-(2,6-dioxopiperidin-3-yl)-6,7-dihydropyrrolo[3,4-f]isoindole-1,3(2H,5H)-dione], for which the DC50 lay in the range of 10 to 100 nM.

For the molecule `O=C1CCC(N2C(=O)c3cc4c(cc3C2=O)CN(CC2COC3(CCN(c5ccc([C@@H]6c7ccc(O)cc7CC[C@@H]6c6ccccc6)cc5)CC3)C2)C4)C(=O)N1` (stereo partly drawn) [E 515, 2-(2,6-dioxopiperidin-3-yl)-6-((8-(4-((1R,2S)-6-hydroxy-2-phenyl-1,2,3,4-tetrahydronaphthalen-1-yl)phenyl)-1-oxa-8-azaspiro[4.5]decan-3-yl)methyl)-6,7-dihydropyrrolo[3,4-f]isoindole-1,3(2H,5H)-dione], the DC50 is 10 to 100 nM.

With `O=C1CCC(N2C(=O)c3cc4c(cc3C2=O)CN(CC(=O)N2CCC3(CC2)CCN(C(=O)c2ccc([C@@H]5c6ccc(O)cc6CC[C@@H]5c5ccccc5)cc2)CC3)C4)C(=O)N1` (stereo partly drawn) [E 495, 2-(2,6-dioxopiperidin-3-yl)-6-(2-(9-(4-((1R,2S)-6-hydroxy-2-phenyl-1,2,3,4-tetrahydronaphthalen-1-yl)benzoyl)-3,9-diazaspiro[5.5]undecan-3-yl)-2-oxoethyl)-6,7-dihydropyrrolo[3,4-f]isoindole-1,3(2H,5H)-dione], the DC50 was more than 100 nM.
